Key:
HT-29 = experiment: Cytotoxicity against human HT-29 cells assessed as cell growth inhibition incubated for 6 hrs by SRB assay; type: functional, cell-based; details: HT-29, 6 h
CCRF-CEM = experiment: Cytotoxicity against human CEM cells assessed as cell growth inhibition incubated for 6 hrs by SRB assay; type: functional, cell-based
[1] = Cytotoxicity against fibroblasts (unknown origin) assessed as cell growth inhibition incubated for 6 hrs by SRB assay; type: toxicity, cell-based, Fibroblast
MCF7 = experiment: Cytotoxicity against human MCF7 cells assessed as cell growth inhibition incubated for 6 hrs by SRB assay; type: functional, cell-based; details: MCF7, 6 h
NCI-H460 = experiment: Cytotoxicity against human NCI-H460 cells assessed as cell growth inhibition incubated for 6 hrs by SRB assay; type: functional, cell-based; details: NCI-H460, 6 h

Row | Compound | IC50 (HT-29) | IC50 (CCRF-CEM) | IC50 at 6 h [1] | IC50 (MCF7) | IC50 (NCI-H460)
1 | CC1(C)CCC[C@]2(C)Oc3c(c(O)cc4oc(-c5ccc(O)c(O)c5)cc(=O)c34)C[C@@H]12 | 24.5 µM | 4.2 µM | 24.5 µM | 6.5 µM | –
2 | CC1(C)CCC[C@]2(C)Oc3cc4oc(-c5ccc(O)c(O)c5)cc(=O)c4c(O)c3C[C@H]12 | 21.9 µM | 4.2 µM | 24.5 µM | 16.7 µM | 2.2 µM
3 | CC1(C)CCC[C@@]2(C)Oc3c(c(O)cc4oc(-c5ccc(O)c(O)c5)cc(=O)c34)C[C@H]12 | 36 µM | 4.8 µM | 36 µM | 17.7 µM | –
4 | COc1cccc2c1C(=O)c1c(O)c3c(c(O)c1C2=O)C[C@@](O)(C(=O)CO)C[C@@H]3O[C@H]1C[C@H](N)[C@H](O)[C@H](C)O1 [DOXORUBICIN] | 0.23 µM | 0.11 µM | 56.3 µM | 0.54 µM | 0.01 µM
5 | CC1(C)CCC[C@@]2(C)Oc3cc4oc(-c5ccc(O)c(O)c5)cc(=O)c4c(O)c3C[C@@H]12 | 37.1 µM | 5.2 µM | 37.1 µM | 19.1 µM | 7.1 µM
6 | CC1(C)CCC[C@]2(C)Oc3c(c(O)cc4oc(-c5ccc(O)c(O)c5)cc(=O)c34)C[C@H]12 | 34.1 µM | 5.9 µM | 34.1 µM | 18.9 µM | –
7 | CC1(C)CCC[C@@]2(C)Oc3cc(O)c4c(=O)cc(-c5ccc(O)c(O)c5)oc4c3C[C@@H]12 | 27.5 µM | 16.4 µM | 27.5 µM | 28.2 µM | 18.3 µM
8 | CC1(C)CCC[C@@]2(C)Oc3c(c(O)cc4oc(-c5ccc(O)c(O)c5)cc(=O)c34)C[C@@H]12 [UGONIN S] | 21.9 µM | 6.2 µM | 21.9 µM | 8.8 µM | –
9 | CC1(C)CCC[C@]2(C)Oc3cc(O)c4c(=O)cc(-c5ccc(O)c(O)c5)oc4c3C[C@H]12 | 33.2 µM | 1.7 µM | 33.2 µM | 26 µM | 17.5 µM
